Our source for the IC50 values is US12091425B2 (AMGEN INC., priority 2016, dated 2024).

Test [1] has as its system OPM-2 human multiple myeloma cell line. In words: Cell Viability Assay (OPM-2 10 FBS). The class given is cell-based. The following applies: OPM-2 cells, CellTiter-Glo. An outline of the steps: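 OPM-2 myeloma cells, 3000/well in medium with 10% FBS, exposed to serially diluted compounds for 16 h at 37° C./5% CO2. Viability read by CellTiter-Glo luminescence; IC50 from 4-parameter logistic fit.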

In test [2] the target is T1, Mcl-1/Bim interaction, recombinant human Mcl-1 (171-327) (Homo sapiens, UniProt Q07820).
T1 construct: made in house
Put plainly: Cell free Mcl-1: Bim Affinity Assay (Mcl-1 HTRF). In kind it is binding. The conditions noted are these: TR-FRET, 0.1 nM Mcl-1 (171-327), 0.05 nM biotin-Bim (51-76). An outline of the steps:
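Displacement of biotinylated Bim 51-76 peptide is followed by TR-FRET. Incubation runs overnight. Duplicate points are fitted with a four-parameter sigmoid to yield IC50.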

[3] abbreviates: Homo sapiens, OPM-2, 16 h, 16 h incubation.
Where [4] appears, read: Homo sapiens, OPM-2, 16 h, 16 h.

T1 sequence (Q07820 171-327): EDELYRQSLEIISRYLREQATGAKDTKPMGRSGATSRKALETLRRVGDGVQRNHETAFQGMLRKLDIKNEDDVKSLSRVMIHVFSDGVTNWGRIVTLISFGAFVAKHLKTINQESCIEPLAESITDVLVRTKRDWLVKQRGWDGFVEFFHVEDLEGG

For `CC[C@@H]1CC/C=C/[C@H](OCC(=O)NCCN(C)C)[C@@H]2CC[C@H]2CN2C[C@@]3(CCCc4cc(Cl)ccc43)COc3ccc(cc32)C(=O)NS1(=O)=O` [Example 995, 2-(((1S,3′R,6′R,7′S,8′E,12′R)-6-chloro-12′-ethyl-13′,13′-dioxido-15′-oxo-3,4-dihydro-2H-spiro[naphthalene-1,22′-[20]oxa[13]thia[1,14]diazatetracyclo[14.7.2.0^3,6.0^19,24]pentacosa [8,16,18,24]tetraen]-7′-yl)oxy)-N-(2-(dimethylamino)ethyl)acetamide], the IC50 in test [1] (setting [3]) came to 1680 nM; in test [2], 0.872 nM.
Turning to `C=CCN1CC/C=C/[C@H](O)[C@@H]2CC[C@H]2CN2C[C@@]3(CCCc4cc(Cl)ccc43)COc3ccc(cc32)C(=O)NS1(=O)=O` [Example 42, (1S,3′R,6′R,7′S,8′E)-6-chloro-7′-hydroxy-12′-(2-propen-1-yl)-3,4-dihydro-2H,15′H-spiro[naphthalene-1,22′-[20]oxa[13]thia[1,12,14]triazatetracyclo[14.7.2.0^3,6.0^19,24]pentacosa[8,16,18,24]tetraen]-15′-one 13′,13′-dioxide], the IC50 in test [1] (setting [4]) was determined as 842 nM; in test [2] it was 0.57 nM.
Take `CC[C@@H]1CC/C=C/[C@H](OCc2nnnn2C)[C@@H]2CC[C@H]2CN2C[C@@]3(CCCc4cc(Cl)ccc43)COc3ccc(cc32)C(=O)NS1(=O)=O` [Example 988, (1S,3′R,6′R,7′S,8′E,12′R)-6-chloro-12′-ethyl-7′-((1-methyl-1H-tetrazol-5-yl)methoxy)-3,4-dihydro-2H,15′H-spiro[naphthalene-1,22′-[20]oxa[13]thia[1,14]diazatetracyclo[14.7.2.0^3,6.0^19,24]pentacosa [8,16,18,24]tetraen]-15′-one 13′,13′-dioxide]: the 50% inhibitory concentration (IC50) in test [1] (setting [3]) was found to be 1000 nM; in test [2] it was 0.536 nM.
`CCC1C(C)C(C)C=CC(O)C2CCC2CN2CC3(CCCc4cc(Cl)ccc43)COc3ccc(cc32)C(=O)NS1(=O)=O` (single isomer, unassigned) [Example 1054]: the values for the half-inhibitory concentration (IC50) in test [1] (16 h incubation) and in test [2] were 101 nM and 0.211 nM, respectively.
As to `O=C1NS(=O)(=O)[C@H](Cc2nccs2)CC/C=C\[C@H](O)[C@@H]2CC[C@H]2CN2C[C@@]3(CCCc4cc(Cl)ccc43)COc3ccc1cc32` (single isomer, unassigned) [Example 374], the IC50 came to 2940 nM in test [1] (16 h) and 2.86 nM in test [2].
Turning to `CC1CC=CC(OCC(C)N2CCOCC2)C2CCC2CN2CC3(CCCc4cc(Cl)ccc43)COc3ccc(cc32)C(=O)NS(=O)(=O)C1CC1CC1` (stereo not shown) [Example 387], the IC50 was 1250 nM in test [1] (setting [4]) and 1.65 nM in test [2].
The matching figures for `Cn1cnc(CO[C@@H]2/C=C/CCCS(=O)(=O)NC(=O)c3ccc4c(c3)N(C[C@@H]3CC[C@H]32)C[C@@]2(CCCc3cc(Cl)ccc32)CO4)n1` [Example 215, (1S,3′R,6′R,7′R,8′E)-6-chloro-7′-((1-methyl-1H-1,2,4-triazol-3-yl)methoxy)-3,4-dihydro-2H,15′H-spiro[naphthalene-1,22′-[20]oxa[13]thia[1,14]diazatetracyclo[14.7.2.0^3,6.0^19,24]pentacosa [8,16,18,24]tetraen]-15′-one 13′,13′-dioxide]: 8740 nM and 1.32 nM.
Take `CC[C@@H]1CC/C=C/[C@H](OCC(=O)O)[C@@H]2CC[C@H]2CN2C[C@@]3(CCCc4cc(Cl)ccc43)COc3ccc(cc32)C(=O)NS1(=O)=O` [Example 992, (((1S,3′R,6′R,7′S,8′E,12′R)-6-chloro-12′-ethyl-13′,13′-dioxido-15′-oxo-3,4-dihydro-2H-spiro[naphthalene-1,22′-[20]oxa[13]thia[1,14]diazatetracyclo[14.7.2.0^3,6.0^19,24]pentacosa [8,16,18,24]tetraen]-7′-yl)oxy)acetic Acid]: the IC50 in test [1] (setting [3]) stood at 2340 nM; in test [2], 0.103 nM.
